Experimental data published in the supplement of paper PMC10307832.

Tests used:
Assay in all cases: relative viability (nuclei count vs DMSO), 5 days (fraction); higher = more cells survive
[1] = test system: NCI-H2347
Outline: (§1)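 Lung cancer cell lines were seeded in 1536-well plates and dosed by pin tool the next day, with either a single drug or a fixed anchor-drug dose combined with five library-drug doses (not always all listed) spaced in √10 steps. Five days later, one step fixed the cells and stained their nuclei (final 0.05% Triton X-100, 1% formaldehyde, 1 ug/ml Hoechst), and nuclei were counted on 4× images. Relative viability is the nuclei count in treated wells divided by the count in vehicle wells, and each value is the median of duplicate plates.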

[2] = test system: SW 1573
Outline: as §1

[3] = test system: HARA
Outline: as §1

[4] = test system: LU99A
Outline: as §1

[5] = test system: UMC-11
Outline: as §1

[6] = test system: NCI-H838
Outline: as §1

[7] = test system: NCI-H2126
Outline: as §1

[8] = test system: EPLC-272H
Outline: as §1

[9] = test system: NCI-H1651
Outline: as §1

[10] = test system: NCI-H1915
Outline: as §1

[11] = test system: NCI-H2342
Outline: as §1

[12] = test system: NCI-H460
Outline: as §1

[13] = test system: HCC-15
Outline: as §1

[14] = test system: NCI-H358
Outline: as §1

[15] = test system: NCI-H2009
Outline: as §1

[16] = test system: NCI-H1993
Outline: as §1

[17] = test system: NCI-H650
Outline: as §1

[18] = test system: NCI-H2085
Outline: as §1

[19] = test system: PC-14
Outline: as §1

[20] = test system: ABC-1
Outline: as §1

[21] = test system: COR-L23
Outline: as §1

[22] = test system: HCC-78
Outline: as §1

[23] = test system: LC-2-ad
Outline: as §1

`CC(C)Oc1cc(Nc2nc(N[C@@H](C)c3ccc(F)cn3)ncc2Cl)n[nH]1` [AZ23] + COc1cc2c(Oc3ccc(NC(=O)C4(C(=O)Nc5ccc(F)cc5)CC4)cc3F)ccnc2cc1OCCCN1CCOCC1 [Foretinib] (partner 0.25 µM) gave a relative viability ([1]; first compound 0.01 µM) of 0.85, a relative viability ([1]; first compound 0.03162 µM) of 0.986 and a relative viability ([1]; first compound 0.3162 µM) of 1.15. For the same compound, the relative viability ([2]; first compound 0.01 µM) was 1.28, the relative viability ([2]; first compound 0.03162 µM) was 1.1 and the relative viability ([2]; first compound 0.3162 µM) was 0.562. For the same compound, the relative viability ([3]; first compound 0.03162 µM) was 1.04, the relative viability ([3]; first compound 0.3162 µM) was 0.783 and the relative viability ([4]; first compound 0.01 µM) was 0.799. For the same compound, the relative viability ([4]; first compound 0.03162 µM) was 0.846, the relative viability ([4]; first compound 0.3162 µM) was 0.872 and the relative viability ([5]; first compound 0.01 µM) was 1.08. It also gave a relative viability ([5]; first compound 0.03162 µM) of 1.15, a relative viability ([5]; first compound 0.3162 µM) of 0.951 and a relative viability ([6]; first compound 0.01 µM) of 1.24. For the same compound, the relative viability ([6]; first compound 0.03162 µM) was 1.14, the relative viability ([6]; first compound 0.3162 µM) was 0.994 and the relative viability ([7]; first compound 0.01 µM) was 1.05. It also gave a relative viability ([7]; first compound 0.03162 µM) of 1.21, a relative viability ([7]; first compound 0.3162 µM) of 1.19 and a relative viability ([8]; first compound 0.01 µM) of 0.77. The relative viability ([8]; first compound 0.03162 µM) was 0.74, the relative viability ([8]; first compound 0.3162 µM) was 0.676 and the relative viability ([9]; first compound 0.03162 µM) was 0.828. It also gave a relative viability ([9]; first compound 0.3162 µM) of 0.844, a relative viability ([10]; first compound 0.01 µM) of 1.22 and a relative viability ([10]; first compound 0.03162 µM) of 1.14. For the same compound, the relative viability ([10]; first compound 0.3162 µM) was 1.08, the relative viability ([11]; first compound 0.01 µM) was 0.974 and the relative viability ([11]; first compound 0.03162 µM) was 1.07. It also gave a relative viability ([11]; first compound 0.3162 µM) of 1.05, a relative viability ([12]; first compound 0.01 µM) of 1.12 and a relative viability ([12]; first compound 0.03162 µM) of 1.11. It also gave a relative viability ([12]; first compound 0.3162 µM) of 1.05, a relative viability ([13]; first compound 0.01 µM) of 1.16 and a relative viability ([13]; first compound 0.03162 µM) of 1.09. For the same compound, the relative viability ([13]; first compound 0.3162 µM) was 1.05, the relative viability ([14]; first compound 0.01 µM) was 0.786 and the relative viability ([14]; first compound 0.03162 µM) was 0.829. The relative viability ([14]; first compound 0.3162 µM) was 0.727, the relative viability ([15]; first compound 0.01 µM) was 1.23 and the relative viability ([15]; first compound 0.03162 µM) was 1.26. It also gave a relative viability ([15]; first compound 0.3162 µM) of 1.23, a relative viability ([16]; first compound 0.01 µM) of 0.66 and a relative viability ([16]; first compound 0.03162 µM) of 0.725. For the same compound, the relative viability ([16]; first compound 0.3162 µM) was 0.753, the relative viability ([17]; first compound 0.01 µM) was 0.988 and the relative viability ([17]; first compound 0.03162 µM) was 1.01. For the same compound, the relative viability ([17]; first compound 0.3162 µM) was 1, the relative viability ([18]; first compound 0.01 µM) was 0.848 and the relative viability ([18]; first compound 0.03162 µM) was 1.22. For the same compound, the relative viability ([18]; first compound 0.3162 µM) was 1.08, the relative viability ([19]; first compound 0.01 µM) was 1.1 and the relative viability ([19]; first compound 0.03162 µM) was 1. It also gave a relative viability ([19]; first compound 0.3162 µM) of 1.13, a relative viability ([20]; first compound 0.01 µM) of 1.03 and a relative viability ([20]; first compound 0.03162 µM) of 1.04. For the same compound, the relative viability ([20]; first compound 0.3162 µM) was 1.02, the relative viability ([21]; first compound 0.01 µM) was 1.09 and the relative viability ([21]; first compound 0.03162 µM) was 1.02. For the same compound, the relative viability ([21]; first compound 0.3162 µM) was 1.11, the relative viability ([22]; first compound 0.01 µM) was 0.588 and the relative viability ([22]; first compound 0.03162 µM) was 0.52. For the same compound, the relative viability ([22]; first compound 0.3162 µM) was 0.547, the relative viability ([23]; first compound 0.01 µM) was 1.07 and the relative viability ([23]; first compound 0.03162 µM) was 0.993. It also gave a relative viability ([23]; first compound 0.3162 µM) of 1.02.
